Experimental findings from ChEMBL document CHEMBL4725437, “P450s under Restriction (PURE) Screen Using HepaRG and Primary Human Hepatocytes for Discovery of Novel HBV Antivirals” (ACS Med Chem Lett, 2020) are described below.

Broadly, the EC50 is the midpoint of the concentration-response curve. The term half-life denotes how long it takes for the measured level to halve. For orientation: CC50 means the concentration that lowers cell viability or growth by half.

A value given as a limit tells only on which side of the number the result lay.

The subject of data set [1] is Hepatitis B virus. The data set can be described thus: Antiviral activity against Hepatitis B virus infected in human HepaRG cells assessed as inhibition of […] measured on day 11 post-infection by chemiluminescence immunostaining assay. It is filed as functional, organism-based. To be noted: 264 h.
Data set [2] in a line: Half life in human primary hepatocytes at 1 uM measured up to 3 hrs under CYP450 restriction in presence of CYP450 inhibitiors ABT and SKF-525A by LC-MS/MS analysis. It is filed as ADME, cell-based, Hepatocyte.
Data set [3] in a line: Half life in human primary hepatocytes at 1 uM measured up to 3 hrs by LC-MS/MS analysis. Type of data set: ADME, cell-based, Hepatocyte.
Data set [4] has as its system Hepatitis B virus. As to the kind of experiment: (§1) Antiviral activity against Hepatitis B virus infected in human HepaRG cells assessed as inhibition of […] under CYP450 restriction pre-treated for 1 hr with CYP450 inhibitors ABT and SKF-525A on day 5 post-infection followed by removal of media and supplemented with fresh media containing diluted compound and further incubated for 3 days then followed by treatment for 1 hr with CYP450 inhibitors ABT and SKF-525A on day 8 post-infection followed by removal of media and supplemented with fresh media containing diluted compound and further incubated for 3 days in presence of 25 uM SKF-525A and measured on day 11 post-infection by chemiluminescence immunostaining assay. Type of data set: functional, organism-based.

Data set [5] in a line: Cytotoxicity against human HepaRG cells assessed as effect on cell viability. Type of data set: cell-based.
The nature of data set [6]: as §1, with “Ratio of EC50 for antiviral activity against” for “Antiviral activity against”, “assessed as fold change for inhibition of HBV DNA replication under normal condition to EC50 for inhibition of” for “assessed as inhibition of”. The conditions noted are these: time 6 day. It is filed as functional.

Regarding `CCOC(=O)C1=C(CN2CCOCC2)NC(c2nccs2)=NC1c1ccc(F)cc1Br` (stereo not given), the EC50 in data set [1] was determined as 590 nM; in data set [4] it was 11 nM. The figures for the half-life at 1 µM in data set [2] and in data set [3] were above 9.33 h and 0.128 h, respectively.
For `COC(=O)C1=C(C)NC(c2ncc(F)cc2F)=N[C@H]1c1ccc(F)cc1Cl` the same measures were 220 nM, 260 nM, 7.18 h and 3.15 h.
With `COc1ccccc1/C(Br)=C(\NC(=O)c1ccc([N+](=O)[O-])cc1)C(=O)N1CCCCC1`, the figures for the EC50 in data set [1] and in data set [4] were 5700 nM and 780 nM, respectively. Further, the CC50 in data set [5] was above 30000 nM. Further, the “Ratio EC50” value in data set [6] was 7.3. Further, the half-life at 1 µM in data set [2] was above 9.33 h; in data set [3], 0.0483 h.
With `O=C(Nc1ccc(F)cc1)c1ccc(CF)c(S(=O)(=O)N2CCOCC(O)C2)c1` (stereo not given), the EC50 in data set [1] was determined as 2100 nM; in data set [4] it was 200 nM. Also, the CC50 in data set [5] is above 30000 nM. Moreover, the “Ratio EC50” value in data set [6] is given as 11. The half-life at 1 µM amounted to 2.65 h in data set [2] and 0.342 h in data set [3].
